Test system: 885724-159-R-J1-PDC complex spheroid viability
Assay: Anticancer human tumor 885724-159-R-J1-PDC patient-derived pancreatic adenocarcinoma cell line growth inhibition [POLQ]
Conditions: for IC50: curve of first compound; for viability, T/C: stronger effect = lower value
Method in brief: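 PDC + HUVEC + MSC complex spheroids; POLQ inhibitors ± partner drugs; top conc. at/near clinical Cmax, else 10 microM (SN-38 1 microM), half-log dilutions; 37 degrees C, 5% CO2.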

[1] = second compound 0.0316 µM, first compound 0.0316 µM
[2] = second compound 0.0316 µM, first compound 0.1 µM
[3] = second compound 0.0316 µM, first compound 0.316 µM
[4] = second compound 0.0316 µM, first compound 1 µM
[5] = second compound 0.0316 µM, first compound 3.16 µM
[6] = second compound 0.0316 µM, first compound 10 µM
[7] = second compound 0.1 µM, first compound 0.0316 µM
[8] = second compound 0.1 µM, first compound 0.1 µM
[9] = second compound 0.1 µM, first compound 0.316 µM
[10] = second compound 0.1 µM, first compound 1 µM
[11] = second compound 0.1 µM, first compound 3.16 µM
[12] = second compound 0.1 µM, first compound 10 µM
[13] = second compound 0.316 µM, first compound 0.0316 µM
[14] = second compound 0.316 µM, first compound 0.1 µM
[15] = second compound 0.316 µM, first compound 0.316 µM
[16] = second compound 0.316 µM, first compound 1 µM
[17] = second compound 0.316 µM, first compound 3.16 µM
[18] = second compound 0.316 µM, first compound 10 µM
[19] = second compound 1 µM, first compound 0.0316 µM
[20] = second compound 1 µM, first compound 0.1 µM
[21] = second compound 1 µM, first compound 0.316 µM
[22] = second compound 1 µM, first compound 1 µM
[23] = second compound 1 µM, first compound 3.16 µM
[24] = second compound 1 µM, first compound 10 µM
[25] = second compound 3.16 µM, first compound 0.0316 µM
[26] = second compound 3.16 µM, first compound 0.1 µM
[27] = second compound 3.16 µM, first compound 0.316 µM
[28] = second compound 3.16 µM, first compound 1 µM
[29] = second compound 3.16 µM, first compound 3.16 µM
[30] = second compound 3.16 µM, first compound 10 µM
[31] = second compound 10 µM, first compound 0.0316 µM
[32] = second compound 10 µM, first compound 0.1 µM
[33] = second compound 10 µM, first compound 0.316 µM
[34] = second compound 10 µM, first compound 1 µM
[35] = second compound 10 µM, first compound 3.16 µM
[36] = second compound 10 µM, first compound 10 µM
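Note: spheroids exposed to compounds for 7 days.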

## C#Cc1c(F)ccc2cc(O)cc(-c3ncc4c(N5CC6CCC(C5)N6)nc(OCC56CCCN5CC(F)C6)nc4c3F)c12 (stereo not drawn) + Cc1cccc(N(C)C(=O)C2C(O)CCN2c2nc(C)cc(C(F)(F)F)c2C#N)c1
Second compound 0.0316 µM
  IC50: 2450 nM
Second compound 0.1 µM
  IC50: 2330 nM
Second compound 0.316 µM
  IC50: 2140 nM
Second compound 1 µM
  IC50: 2170 nM
Second compound 3.16 µM
  IC50: 1930 nM
Second compound 10 µM
  IC50: 1470 nM
[1]
  viability, T/C: 98.6%
[2]
  viability, T/C: 92.6%
[3]
  viability, T/C: 78.5%
[4]
  viability, T/C: 72%
[5]
  viability, T/C: 42.4%
[6]
  viability, T/C: 19.9%
[7]
  viability, T/C: 101%
[8]
  viability, T/C: 93.1%
[9]
  viability, T/C: 83.9%
[10]
  viability, T/C: 68.8%
[11]
  viability, T/C: 42.7%
[12]
  viability, T/C: 18.4%
[13]
  viability, T/C: 95.5%
[14]
  viability, T/C: 87.5%
[15]
  viability, T/C: 95.4%
[16]
  viability, T/C: 70%
[17]
  viability, T/C: 39.7%
[18]
  viability, T/C: 20.6%
[19]
  viability, T/C: 93.3%
[20]
  viability, T/C: 101%
[21]
  viability, T/C: 79.7%
[22]
  viability, T/C: 64.5%
[23]
  viability, T/C: 44.2%
[24]
  viability, T/C: 21.2%
[25]
  viability, T/C: 92.8%
[26]
  viability, T/C: 94.2%
[27]
  viability, T/C: 80.4%
[28]
  viability, T/C: 62.8%
[29]
  viability, T/C: 40.7%
[30]
  viability, T/C: 19%
[31]
  viability, T/C: 93.8%
[32]
  viability, T/C: 81%
[33]
  viability, T/C: 80.3%
[34]
  viability, T/C: 55.3%
[35]
  viability, T/C: 36.2%
[36]
  viability, T/C: 19.9%

## CC1COCCN1c1cc(C2(O)CC3CCC(C2)O3)c2cnn(-c3ccn[nH]3)c2n1 (stereo not drawn) + Cc1cccc(N(C)C(=O)C2C(O)CCN2c2nc(C)cc(C(F)(F)F)c2C#N)c1
Second compound 0.0316 µM
  IC50: 142 nM
Second compound 0.1 µM
  IC50: 243 nM
Second compound 0.316 µM
  IC50: 151 nM
Second compound 1 µM
  IC50: 188 nM
Second compound 3.16 µM
  IC50: 302 nM
Second compound 10 µM
  IC50: 225 nM
[1]
  viability, T/C: 74.4%
[2]
  viability, T/C: 51.4%
[3]
  viability, T/C: 41.6%
[4]
  viability, T/C: 39.6%
[5]
  viability, T/C: 35.4%
[6]
  viability, T/C: 28.5%
[7]
  viability, T/C: 72%
[8]
  viability, T/C: 58.1%
[9]
  viability, T/C: 47.6%
[10]
  viability, T/C: 39.3%
[11]
  viability, T/C: 35.4%
[12]
  viability, T/C: 30.8%
[13]
  viability, T/C: 70.4%
[14]
  viability, T/C: 46.9%
[15]
  viability, T/C: 47.2%
[16]
  viability, T/C: 41%
[17]
  viability, T/C: 35.3%
[18]
  viability, T/C: 28.8%
[19]
  viability, T/C: 77.3%
[20]
  viability, T/C: 56.7%
[21]
  viability, T/C: 41.4%
[22]
  viability, T/C: 40%
[23]
  viability, T/C: 33.2%
[24]
  viability, T/C: 27.1%
[25]
  viability, T/C: 68.8%
[26]
  viability, T/C: 55.8%
[27]
  viability, T/C: 49.4%
[28]
  viability, T/C: 43.2%
[29]
  viability, T/C: 36.5%
[30]
  viability, T/C: 29.2%
[31]
  viability, T/C: 70.6%
[32]
  viability, T/C: 54.2%
[33]
  viability, T/C: 48.8%
[34]
  viability, T/C: 38.1%
[35]
  viability, T/C: 36%
[36]
  viability, T/C: 29%

## O=C(Nc1ccc(O)c(NS(=O)(=O)c2ccc(F)cc2)c1)c1ccc(-c2ccccc2)cc1 + Cc1cccc(N(C)C(=O)C2C(O)CCN2c2nc(C)cc(C(F)(F)F)c2C#N)c1
Second compound 0.0316 µM
  IC50: > 10000 nM
Second compound 0.1 µM
  IC50: > 10000 nM
Second compound 0.316 µM
  IC50: > 10000 nM
Second compound 1 µM
  IC50: > 10000 nM
Second compound 3.16 µM
  IC50: > 10000 nM
Second compound 10 µM
  IC50: > 10000 nM
[1]
  viability, T/C: 110%
[2]
  viability, T/C: 92.4%
[3]
  viability, T/C: 101%
[4]
  viability, T/C: 102%
[5]
  viability, T/C: 106%
[6]
  viability, T/C: 102%
[7]
  viability, T/C: 96.6%
[8]
  viability, T/C: 103%
[9]
  viability, T/C: 94.2%
[10]
  viability, T/C: 107%
[11]
  viability, T/C: 111%
[12]
  viability, T/C: 117%
[13]
  viability, T/C: 102%
[14]
  viability, T/C: 92.3%
[15]
  viability, T/C: 98.3%
[16]
  viability, T/C: 101%
[17]
  viability, T/C: 118%
[18]
  viability, T/C: 108%
[19]
  viability, T/C: 110%
[20]
  viability, T/C: 91.2%
[21]
  viability, T/C: 107%
[22]
  viability, T/C: 106%
[23]
  viability, T/C: 112%
[24]
  viability, T/C: 111%
[25]
  viability, T/C: 107%
[26]
  viability, T/C: 90.1%
[27]
  viability, T/C: 105%
[28]
  viability, T/C: 104%
[29]
  viability, T/C: 115%
[30]
  viability, T/C: 107%
[31]
  viability, T/C: 105%
[32]
  viability, T/C: 102%
[33]
  viability, T/C: 104%
[34]
  viability, T/C: 108%
[35]
  viability, T/C: 123%
[36]
  viability, T/C: 101%

## COc1cccc2c1C(=O)c1c(O)c3c(c(O)c1C2=O)CC(O)(C(=O)CO)CC3OC1CC(N)C(O)C(C)O1 (stereo not drawn) + Nc1ccc(C#CCN(C(=O)Cc2ncc(C(F)(F)F)cc2C(F)(F)F)c2ccc(F)cc2)nn1
Second compound 0.0316 µM
  IC50: 158 nM
Second compound 0.1 µM
  IC50: 198 nM
Second compound 0.316 µM
  IC50: 150 nM
Second compound 1 µM
  IC50: 173 nM
Second compound 3.16 µM
  IC50: 163 nM
Second compound 10 µM
  IC50: 168 nM
[1]
  viability, T/C: 66.2%
[2]
  viability, T/C: 61%
[3]
  viability, T/C: 34%
[4]
  viability, T/C: 13.8%
[5]
  viability, T/C: 5.73%
[6]
  viability, T/C: 6.16%
[7]
  viability, T/C: 75.9%
[8]
  viability, T/C: 64.5%
[9]
  viability, T/C: 40.4%
[10]
  viability, T/C: 12.2%
[11]
  viability, T/C: 6.2%
[12]
  viability, T/C: 6.34%
[13]
  viability, T/C: 72.5%
[14]
  viability, T/C: 55.7%
[15]
  viability, T/C: 37.7%
[16]
  viability, T/C: 14.6%
[17]
  viability, T/C: 5.39%
[18]
  viability, T/C: 7.18%
[19]
  viability, T/C: 76.7%
[20]
  viability, T/C: 60.8%
[21]
  viability, T/C: 38.1%
[22]
  viability, T/C: 10.1%
[23]
  viability, T/C: 6.54%
[24]
  viability, T/C: 7.34%
[25]
  viability, T/C: 74.9%
[26]
  viability, T/C: 60.6%
[27]
  viability, T/C: 35.2%
[28]
  viability, T/C: 12.9%
[29]
  viability, T/C: 5.75%
[30]
  viability, T/C: 7.58%
[31]
  viability, T/C: 70.8%
[32]
  viability, T/C: 61.1%
[33]
  viability, T/C: 36.1%
[34]
  viability, T/C: 11.3%
[35]
  viability, T/C: 5.42%
[36]
  viability, T/C: 5.67%

Source: PubChem BioAssay AID1963832 (Molecular Pharmacology Branch, DTP, NCI, 2024)
